Measurements published in patent US20100022556A1, “Therapeutic combinations comprising a long acting dihydropyridine calcium-channel blocker and a statin” (CHIESI FARMACEUTICI S.P.A., priority 2005, published 2010).

Assays:
[1] = Blood pressure in hypertensive, hypercholesterolemic patients (3x3 cross-over trial); format: in vivo, human; conditions: manidipine 20 mg, simvastatin 40 mg or fixed combination, end of 12 week treatment
Method: (§1) The aim of this study was to evaluate the effect of the manidipine-simvastatin combination on plasma tissue plasminogen activator (t-PA) and inhibitor (PAI-1) activity, on plasma intercellular adhesion molecule type-1 (ICAM-1) and on serum C-reactive protein (CRP) in hypertensive, hypercholesterolemic patients.
(§2) After 4 week placebo run-in period, 30 hypertensive hypercholesterolemic patients were randomized to a manidipine 20 mg or simvastatin 40 mg or a manidipine-simvastatin fixed combination treatment, according to 3×3 cross-over design; each treatment had 12 week duration.
(§3) The last day of the placebo run-in period and of each treatment period blood pressure was measured and a venous blood sample was taken (at the same hour in the morning) to evaluate plasma t-PA and PAI-1 activity, TC plasma, ICAM-1 and CRP.

[2] = test system: plasma tissue plasminogen activator (t-PA); assay: Plasma t-PA activity in hypertensive, hypercholesterolemic patients; format: in vivo, human; conditions: for t-PA: plasma activity, patients, end of 12 week treatment
Method: as §1, §2, §3

[3] = test system: inhibitor (PAI-1); assay: Plasma PAI-1 activity in hypertensive, hypercholesterolemic patients; format: in vivo, human; conditions: for change in PAI-1 activity vs placebo: 12 week treatment; for PAI-1: plasma activity, patients, end of 12 week treatment
Method: as §1, §2, §3

[4] = test system: total cholesterol; assay: Total cholesterol (TC) in hypertensive, hypercholesterolemic patients; format: in vivo, human; conditions: for TC: patients, end of 12 week treatment
Method: as §3

[5] = test system: plasma intercellular adhesion molecule type-1 (ICAM-1); assay: Plasma ICAM-1 in hypertensive, hypercholesterolemic patients; format: in vivo, human; conditions: for change in ICAM-1 mean value vs placebo: 12 week treatment; for ICAM-1: plasma, patients, end of 12 week treatment
Method: as §1, §2, §3

[6] = test system: serum C-reactive protein (CRP); assay: Serum CRP in hypertensive, hypercholesterolemic patients; format: in vivo, human; conditions: end of 12 week treatment
Method: as §1, §2, §3

[7] = test system: ischemic-reperfused myocardium; conditions: isolated rat hearts; simvastatin: normocholesterolemic rat hearts; cited from earlier work
[8] = test system: perfused rat heart preparations submitted to ischemia-reperfusion; assay: Myocardial ischemia-reperfusion damage, perfused hearts from orally treated rats; format: in vivo, Male Wistar rats; conditions: oral gavage once a day for 5 days; manidipine 1 and 3 mg/kg, simvastatin 1 mg/kg, alone or combined
Method: The hearts were excised from rats orally treated for 5 consecutive days with manidipine and simvastatin alone or in combination. […] Data are means±SEM of 8 hearts per group. *P<0.05, **P<0.01, ***P<0.001 vs control; #P<0.01 vs simvastatin alone.
The aim of this study was to evaluate the protective effects of the manidipine-simvastatin combination against myocardial ischemia-reperfusion damage in the rat.
The study was performed according to a method described previously (Rossoni G et al Pharmacol Exp Ther. 2003 307(2), 633-9).
Male Wistar rats were randomly divided into six groups (n=6-8 rats per group). Manidipine (1 mg/kg and 3 mg/kg) simvastatin (1 mg/kg) were administered alone or in combination by oral gavage once a day for five consecutive days.
The following parameters were determined:
i) the left ventricular end-diastolic pressure (LVEDP) and the left ventricular developed pressure (LVDevP; peak left ventricular systolic pressure minus LVEDP);
ii) the activities of creatine kinase (CK) and lactate dehydrogenase (LDH) in the heart perfusate.
The data were expressed as mean±S.E.M (standard error of the mean).

[9] = change vs placebo, 12 week treatment

| Compound | DBP [1] [mmHg] | SBP [1] [mmHg] | t-PA [2] [U/ml] | change in PAI-1 activity vs placebo [3] | PAI-1 [3] [U/ml] | change in total cholesterol mean value vs placebo [4, 9] [mg/dL] | TC [4] [mg/dL] | change in ICAM-1 mean value vs placebo [5] [ng/mL] | ICAM-1 [5] [ng/mL] | CRP [6] [mg/dL] | protection of ischemic-reperfused myocardium [7] | change in t-PA activity vs placebo [2, 9] | rise in LVEDP during ischemia and reperfusion [8] |
| --- | --- | --- | --- | --- | --- | --- | --- | --- | --- | --- | --- | --- | --- |
| CCC(C)(C)C(=O)O[C@H]1C[C@@H](C)C=C2C=C[C@H](C)[C@H](CC[C@@H]3C[C@@H](O)CC(=O)O3)[C@H]21 [Simvastatin, simvastatin] | 98.2 ± 6.2 | 155.4 ± 11.9 | 0.51 ± 0.14 | −8.5 U/ml | 16.1 ± 7.3 | -52.7 | 202.2 ± 26.4 | -30.4 | 207.4 ± 26 | 0.16 ± 0.12 | – | – | – |
| COC(=O)C1=C(C)NC(C)=C(C(=O)OC2CCCN(Cc3ccccc3)C2)C1c1cccc([N+](=O)[O-])c1 (centres unmarked) [benidipine] | – | – | – | – | – | – | – | – | – | – | relevant cardioprotection | – | – |
| COC(=O)C1=C(C)NC(C)=C(C(=O)OCCN2CCN(C(c3ccccc3)c3ccccc3)CC2)C1c1cccc([N+](=O)[O-])c1 (racemic) [Manidipine, (±)-1,4-dihydro-2,6-dimethyl-4-(3-nitrophenyl)-3,5-pyridinedicarboxylic acid 2-[4-(diphenylmethyl)-1-piperazinyl]ethyl methyl ester] | 84.1 ± 4.8 | 140.5 ± 10.7 | 0.71 ± 0.19 | did not affect | 24.9 ± 12.6 | – | 253.8 ± 29.6 | -17.6 | 220.2 ± 29.8 | 0.34 ± 0.20 | relevant cardioprotection | +0.22 U/ml | significantly reduced according to the dose used |
